The text below walks through data of patent US20220000811A1, “COMPOSITION FOR PROMOTING HAIR GROWTH COMPRISING A GUANINE DERIVATIVE” (KOREA RESEARCH INSTITUTE OF BIOSCIENCE AND BIOTECHNOLOGY, priority 2019, published 2022).

Structures are written as SMILES.

The test system of assay [1] is mouse embryonic fibroblasts (MEFs). Description: Reprogramming into iPSCs (OSKM) in mouse embryonic fibroblasts, AP staining. Particulars: for effect on reprogramming, number of AP+ colonies: MEFs, OSKM, after 14 days, indicated concentrations. In kind it is cell-based. The method, then:
During reprogramming into iPSCs by introducing OSKM reprogramming factor into mouse embryonic fibroblasts (MEFs), rotenone, the guanidine derivatives of the present invention, and phenformin were treated at the indicated concentrations. After 14 days, alkaline phosphatase (AP) staining was performed (FIG. 2A), and the number of AP^+ colonies was quantified (FIG. 2b). […] In the subsequent experiment, additional efficacy was evaluated using only the three compounds showing the effective reprogramming-enhancing effect.

Assay [2] deals with human foreskin fibroblast (HFFs). Description: Reprogramming into iPSCs (OSKM) in human foreskin fibroblasts, AP staining. The assay is classed as cell-based. As to conditions: OSKM, after 28 days. As for the experimental part: After 28 days, AP staining was performed (FIG. 3a), and the number of AP^+ colonies was quantified (FIG. 3b).
Assay [3] deals with human embryonic stem cells (hESCs). The experiment in a line: Maintaining stemness of human embryonic stem cells in unconditioned medium, AP staining. In kind it is cell-based. As to conditions: hESCs in unconditioned medium, low dose. As for the experimental part:
Additionally, the effect of the compounds of the present invention on maintaining sternness of human embryonic stern cells (hESCs) was confirmed (FIG. 4). Specifically, when hESCs were cultured in an unconditioned medium (UM), the sternness was lost, and AP activity was weakened (FIG. 4a). […] In particular, when IM176OUT05 was treated at 10 nM and 100 nM concentrations, it was confirmed that the effect of maintaining the sternness was improved by 7.6 times and 8.2 times, respectively (FIG. 4b).

The subject of another assay is C57BL/6 mice. Description: Hair regeneration model, darkness of dorsal skin and hair growth. In kind it is in vivo, mouse. Particulars: 1% topical daily. The method, then: During the hair telogen phase, the hair on the dorsal skin of 7-week-old C57BL/6 mice (Dae Han BioLink, Chungbuk, Republic of Korea) was depilated using an animal clipper and wax (Veet, Oxy Reckitt Benckiser, Seoul, Republic of Korea). From the next day, 200 μL of placebo (control), 1% IM, 1% minoxidil, or 1% metformin was applied daily to the depilated area using a sterile cotton swab. Images of each animal were captured daily, and the degree of darkness of the color on dorsal skin was quantified in the same area (1.6 cm×3 cm) using the Image J program. The mice were sacrificed, and skin tissues on days 0, 7, 14, and 20 were obtained. Half of the tissues were used for RNA isolation, and the other half were fixed with 4% paraformaldehyde overnight for histochemical analysis. It was confirmed whether the IM compound can promote hair growth without showing toxicity or other side effects through mouse experiments. In 7-week-old C57BL/6 mice, the telogen phase was motivated by hair removal, and various concentrations of IM were applied topically to the dorsal skin of the mice daily.

The subject of assay [4] is K15/β-catenin, Ki67/Shh, K15/PDK, Ki67/PDH populations. Description: FACS analysis of single skin cells. In kind it is in vivo, mouse. The method, then:
During the hair telogen phase, the hair on the dorsal skin of 7-week-old C57BL/6 mice (Dae Han BioLink, Chungbuk, Republic of Korea) was depilated using an animal clipper and wax (Veet, Oxy Reckitt Benckiser, Seoul, Republic of Korea). From the next day, 200 μL of placebo (control), 1% IM, 1% minoxidil, or 1% metformin was applied daily to the depilated area using a sterile cotton swab. Images of each animal were captured daily, and the degree of darkness of the color on dorsal skin was quantified in the same area (1.6 cm×3 cm) using the Image J program. The mice were sacrificed, and skin tissues on days 0, 7, 14, and 20 were obtained. Half of the tissues were used for RNA isolation, and the other half were fixed with 4% paraformaldehyde overnight for histochemical analysis. After the mice were perfused with PBS to remove blood, the skin tissue was harvested and cut into small pieces. The tissue was digested with trypsin (Thermo Fisher Scientific) at 37° C. for 150 minutes, then filtered through a 75 μm nylon mesh, followed by filtering through a 30 μm mesh (BD Biosciences). Single cells were fixed, permeabilized, and blocked according to the immunostaining protocol. The cells were stained with specific antibodies (Table 1 above) and analyzed with BD Accuri™ C6 (BD Biosciences)
Background: In flow cytometry, cells or beads pass a laser one at a time.

On to `N=C(N)NC(=N)NCCc1ccc(Cl)c(Cl)c1` [IM176OUT04, N-1-(3,4-dichloro)phenethylbiguanide], for which the “effect on reprogramming, number of AP+ colonies” value (“effect on reprogramming, number” below) in assay [1] is reported as “increased”. Further, the “concentration with the most excellent reprogramming efficacy” value in assay [2] turned out to be 10 nM. Also, the “AP staining (stemness)” value in assay [3] is on record as “increase in AP staining”.

With `CN(C)C(=N)N=C(N)N` [metformin, reference compound], the “hair growth effect overall” value with C57BL/6 mice is on record as “did not show a remarkable effect”. Moreover, in the assay on C57BL/6 mice (from day 8), the “darkness intensity on the dorsal skin compared to control” value is on record as “slightly was increased”.

Take `NC(=Nc1ccc(OC(F)(F)F)cc1)N=C(N)N1CCCC1` [IM156]: in assay [1], the “effect on reprogramming, number” value was “did not show an effect of promoting reprogramming”.

In the case of `Cc1ccc(CCNC(=N)N)cc1C` [IM177OUT02, 1-(3,4-dimethylphenethyl)guanide], the “effect on reprogramming, number” value in assay [1] was “increased”. Besides, the “concentration with the most excellent reprogramming efficacy” value in assay [2] is listed as 10 nM. The “AP staining (stemness)” value in assay [3] is listed as “increase in AP staining”.

As for `[H]/N=C(/N)N/C(=N/[H])NCCc1ccccc1` [phenformin, reference compound], in assay [1], the “effect on reprogramming, number” value is “did not show an effect of promoting reprogramming”.

Take `Nc1cc(N2CCCCC2)nc(N)[n+]1[O-]` [minoxidil, reference compound]: in assay [4] (day 7, FACS), the “K15+/β-catenin+ population in single skin cells” value was found to be 6.0% and the “Ki67+/PDH+ population” value turned out to be 8.3%. Also, the “Ki67+/Shh+ population in single skin cells” value in assay [4] (day 20, FACS) is recorded as 34%.

Consider `C=C(C)[C@H]1Cc2c(ccc3c2O[C@@H]2COc4cc(OC)c(OC)cc4[C@@H]2C3=O)O1` [Rotenone, reference compound], for which the “promotion of reprogramming of somatic cells” value in assay [1] (sub-toxic dose (10 nM)) is listed as “efficiently promote reprogramming”.
